From patent US6908915B1, “Tricyclic compounds and their uses as antiarrhythmic antifibrillatory and defibrillatory agents” (Technion Research & Development Foundation Ltd., priority 2000, dated 2005) come the findings set out here.

For the assay, the system named is artificially induced SVF. The assay can be described thus: Transformation of electrically induced SVF to TVF in anesthetized cats (antiarrhythmic defibrillating activity). The format is in vivo. The following applies: intravenous, VF type examined before and 2 to 3 min after drug; for Relative activity in dosage of 1 mg/kg: monohydrochloride. How it is done:
10,11-dihydro-5-[(3-N-alkyl)1-oxopropyl] 5-H-dibenzo[b,f]azepin monohydrochloride, 10,11-dihydro-5-[N-? isopropylamino-2propanol)] 5-H-dibenzo [b,f]azepin monohydrochloride and 11-Oxo-10,11-dihydro-5-[(N-alkyl)1-oxopropyl]-5-H-dibenzo [b,e] [1,4] diazepin hydrochloride were synthesized as is described hereinabove and tested for their effectiveness in transforming SVF to TVF, as described herein. […] The experimental method was as follows.
Hydrochloride salts of the compounds were dissolved in saline. Activity of each compound was tested in cats of both sexes. Cats were anesthetized with 15-25 mg/kg intravenous sodium, pentobarbital. The tested compounds were injected intravenously (1-3 mg/kg). The heart of each experimental subject was exposed through midline thoracotomy, and a room air respirator was applied through a tracheal cannula. Lead II electrocardiogram and intra-arterial blood pressure was recorded on a Grass Polygraph (Grass Instrument Co., Quincy, Mass., USA).
Fibrillating stimuli (a train of rectangular pulses of 2 to 15 V, 100 pulses/sec and duration of 0.1 to 1.0 msec, for a period of 1 sec) were delivered through two silver needle electrodes attached to the pericardium on the left ventricle. Fibrillating stimuli were one and a half to twice the strength of the fibrillating threshold.
VF was induced before and after drug administration, according to a previously described procedure. The type of VF was examined before and 2 to 3 min after drug treatment. Each cat served as its own control. In some experiments, a β-adrenergic blocker (propranolol, 0.1-0.6 mg/kg) was administered after drug administration, in order to evaluate the neutralizing effect of the blocker on the compound-induced catecholamine levels. Table l below presents the results.

Regarding `CC(C)NCC(O)CN1c2ccccc2CCc2ccccc21.Cl` (stereo not drawn) [Compound 25bi], the “Relative activity in dosage of 1 mg/kg” value came to 100% and the “Relative activity in dosage of 2 mg/kg” value worked out at 100%.
On to `CC(C)NCC(O)CN1c2ccccc2CCc2ccccc21.Cl` (stereo not drawn) [Compound 25bis], for which the “Relative activity in dosage of 1 mg/kg” value is recorded as 100% and the “Relative activity in dosage of 2 mg/kg” value amounted to 100%.
Take `CC(C)NCC(O)CN1c2ccccc2CCc2ccccc21.Cl` (stereo not drawn) [Compound 25bir]: the “Relative activity in dosage of 1 mg/kg” value was found to be 50% and the “Relative activity in dosage of 2 mg/kg” value amounted to 100%.
